In paper PMC11845477, “Exploring the principles behind antibiotics with limited resistance” (Nature Communications, 2025):

System: A. baumannii ATCC 17978 (SEN) and A. baumannii ATCC BAA-1605 (MDR)
Assay: Adaptive laboratory evolution (ALE), relative MIC of evolved lines
Type: cell-based, Acinetobacter baumannii
In short: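 Ten parallel populations per antibiotic–ancestor pair were evolved in MHB at 37 °C, starting near 50% growth-inhibiting drug. Every 72 h they were passaged into 0.5–2.5× increasing concentrations, keeping the highest-drug well with OD600 > 0.2.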

[1] = AB-MDR (Acinetobacter baumannii ATCC BAA 1605), evolved line 2
[2] = AB-MDR (Acinetobacter baumannii ATCC BAA 1605), evolved line 5
[3] = AB-MDR (Acinetobacter baumannii ATCC BAA 1605), evolved line 7
[4] = AB-MDR (Acinetobacter baumannii ATCC BAA 1605), evolved line 9
[5] = AB-MDR (Acinetobacter baumannii ATCC BAA 1605), evolved line 10
[6] = AB-SEN (Acinetobacter baumannii ATCC 17978), evolved line 4
[7] = AB-SEN (Acinetobacter baumannii ATCC 17978), evolved line 6
[8] = AB-SEN (Acinetobacter baumannii ATCC 17978), evolved line 8
[9] = AB-SEN (Acinetobacter baumannii ATCC 17978), evolved line 9
[10] = AB-SEN (Acinetobacter baumannii ATCC 17978), evolved line 10

Compound: CC(C)c1ccc(Cn2ccc3c4c(N)nc(NC5CC5)nc4ccc32)cc1 [SCH79797]
- Relative MIC (AB-MDR (A. baumannii ATCC BAA 1605), evolved line 9 vs ancestor): 2
- MIC of evolved line (AB-MDR (A. baumannii ATCC BAA 1605), evolved line 10 of the given antibiotic): 8 µg/mL
- Relative MIC (AB-MDR (A. baumannii ATCC BAA 1605), evolved line 10 vs ancestor): 2
- Relative MIC [1]: 2
- Relative MIC (log10) [1]: 0.301 log10
- Relative MIC [2]: 2
- Relative MIC (log10) [2]: 0.301 log10
- Relative MIC [3]: 4
- Relative MIC (log10) [3]: 0.6021 log10
- Relative MIC [4]: 2
- Relative MIC (log10) [4]: 0.301 log10
- Relative MIC [5]: 2
- Relative MIC (log10) [5]: 0.301 log10
- MIC of evolved line (AB-SEN (A. baumannii ATCC 17978), evolved line 2 of the given antibiotic): 4 µg/mL
- Relative MIC (AB-SEN (A. baumannii ATCC 17978), evolved line 2 vs ancestor): 1
- MIC of evolved line (AB-SEN (A. baumannii ATCC 17978), evolved line 4 of the given antibiotic): 8 µg/mL
- Relative MIC (AB-SEN (A. baumannii ATCC 17978), evolved line 4 vs ancestor): 2
- MIC of evolved line (AB-SEN (A. baumannii ATCC 17978), evolved line 6 of the given antibiotic): 8 µg/mL
- Relative MIC (AB-SEN (A. baumannii ATCC 17978), evolved line 6 vs ancestor): 2
- MIC of evolved line (AB-SEN (A. baumannii ATCC 17978), evolved line 8 of the given antibiotic): 8 µg/mL
- Relative MIC (AB-SEN (A. baumannii ATCC 17978), evolved line 8 vs ancestor): 2
- MIC of evolved line (AB-SEN (A. baumannii ATCC 17978), evolved line 9 of the given antibiotic): 8 µg/mL
- Relative MIC (AB-SEN (A. baumannii ATCC 17978), evolved line 9 vs ancestor): 2
- MIC of evolved line (AB-SEN (A. baumannii ATCC 17978), evolved line 10 of the given antibiotic): 8 µg/mL
- Relative MIC (AB-SEN (A. baumannii ATCC 17978), evolved line 10 vs ancestor): 2
- Relative MIC (AB-SEN (Acinetobacter baumannii ATCC 17978), evolved line 2): 1
- Relative MIC [6]: 2
- Relative MIC (log10) [6]: 0.301 log10
- Relative MIC [7]: 2
- Relative MIC (log10) [7]: 0.301 log10
- Relative MIC [8]: 2
- Relative MIC (log10) [8]: 0.301 log10
- Relative MIC [9]: 2
- Relative MIC (log10) [9]: 0.301 log10
- Relative MIC [10]: 2
- Relative MIC (log10) [10]: 0.301 log10
- Relative MIC (ALE, Acinetobacter baumannii ATCC 17978 (AB-SEN), evolved line 2): 1
- Relative MIC (ALE, Acinetobacter baumannii ATCC 17978 (AB-SEN), evolved line 4): 2
- Relative MIC (ALE, Acinetobacter baumannii ATCC 17978 (AB-SEN), evolved line 6): 2
- Relative MIC (ALE, Acinetobacter baumannii ATCC 17978 (AB-SEN), evolved line 8): 2
- Relative MIC (ALE, Acinetobacter baumannii ATCC 17978 (AB-SEN), evolved line 9): 2
- Relative MIC (ALE, Acinetobacter baumannii ATCC 17978 (AB-SEN), evolved line 10): 2
- Relative MIC (ALE, Acinetobacter baumannii ATCC BAA 1605 (AB-MDR), evolved line 2): 2
- Relative MIC (ALE, Acinetobacter baumannii ATCC BAA 1605 (AB-MDR), evolved line 5): 2
- Relative MIC (ALE, Acinetobacter baumannii ATCC BAA 1605 (AB-MDR), evolved line 7): 4
- Relative MIC (ALE, Acinetobacter baumannii ATCC BAA 1605 (AB-MDR), evolved line 9): 2
- Relative MIC (ALE, Acinetobacter baumannii ATCC BAA 1605 (AB-MDR), evolved line 10): 2
- Relative MIC (Acinetobacter baumannii ATCC 17978 (AB-SEN), evolved line 2): 1
- Relative MIC (Acinetobacter baumannii ATCC 17978 (AB-SEN), evolved line 4): 2
- Relative MIC (Acinetobacter baumannii ATCC 17978 (AB-SEN), evolved line 6): 2
- Relative MIC (Acinetobacter baumannii ATCC 17978 (AB-SEN), evolved line 8): 2
- Relative MIC (Acinetobacter baumannii ATCC 17978 (AB-SEN), evolved line 9): 2
- Relative MIC (Acinetobacter baumannii ATCC 17978 (AB-SEN), evolved line 10): 2
- Relative MIC (Acinetobacter baumannii ATCC BAA 1605 (AB-MDR), evolved line 2): 2
- Relative MIC (Acinetobacter baumannii ATCC BAA 1605 (AB-MDR), evolved line 5): 2
- Relative MIC (Acinetobacter baumannii ATCC BAA 1605 (AB-MDR), evolved line 7): 4
- Relative MIC (Acinetobacter baumannii ATCC BAA 1605 (AB-MDR), evolved line 9): 2
- Relative MIC (Acinetobacter baumannii ATCC BAA 1605 (AB-MDR), evolved line 10): 2
